Source: patent US20250099423A1, “PIPERAZINE-BASED AGONISTS OF LFA-1 AND VLA-4” (Texas Heart Institute, priority 2021, published 2025)

Columns and labels:
α4β1/VCAM-1 = target: T1, α4β1/VCAM-1 (Homo sapiens, UniProt P05556+P13612); assay: Static cell adhesion assay, Jurkat cells on VCAM-1 (α4β1/VCAM-1); format: cell-based; details: ratio compound activity/control THI0019 (average 33 μM) run on the same plate
T1 construct: The Jurkat (VCAM-1 assays) and HSB (ICAM-1 assays) cell lines were obtained from American Type Culture Collection; endogenous in cells; host or cells: Jurkat cells (ATCC)
Method: (§1) For in vitro cell adhesion assays, compounds were dissolved in DMSO to make a series of stock solutions such that a 1:100 dilution in assay buffer would yield the desired final working concentrations in 1% DMSO (vehicle). Human VCAM-1 and ICAM-1 were purchased from R&D Systems (Minneapolis, MN). The Jurkat (VCAM-1 assays) and HSB (ICAM-1 assays) cell lines were obtained from American Type Culture Collection (Manassas, VA) and were maintained in recommended culture media.
(§2) Assays were performed as previously described in 1. Vanderslice, P., Woodside, D. G., Caivano, A. R., Decker, E. R., Munsch, C. L., Sherwood, S. J., Lejeune, W. S., Miyamoto, Y. J., McIntyre, B. W., Tilton, R. G., and Dixon, R. A. (2010) Potent in vivo suppression of inflammation by selectively targeting the high affinity conformation of integrin alpha4beta1. Biochem Biophys Res Commun 400, 619-624; and 2. Vanderslice, P., Biediger, R. J., Woodside, D. G., Brown, W. S., Khounlo, S., Warier, N. D., Gundlach, C. W. t., Caivano, A. R., Bornmann, W. G., Maxwell, D. S., McIntyre, B. W., Willerson, J. T., and Dixon, R. A. (2013) Small molecule agonist of very late antigen-4 (VLA-4) integrin induces progenitor cell adhesion. J Biol Chem 288, 19414-19428. VCAM-1 or ICAM-1 ligand in 50 μL of 50 mM Tris-HCl (pH 7.4), 150 mM NaCl, (TBS) was added to wells of a 96-well plate and allowed to coat overnight at 4° C. To maximize the window to evaluate agonist activity, a sub-optimal coating concentration of ligand was used, typically between 0.5 and 5 μg/mL in 50 μL TBS for VCAM-1 and ICAM-1 respectively. This ligand concentration corresponded approximately to that which would yield≤ 5% adhesion as determined by dose-response curves. Briefly, 2×10^6 cells were labeled for 30 minutes with calcein-AM (Molecular Probes), washed, resuspended in binding buffer, and added to triplicate wells of ligand-coated plates (2×10^5 cells/well) that had been blocked with 2% BSA. After a 30-minute incubation at 37° C., the plates were washed 3 times with binding buffer, the adherent cells were lysed, and fluorescence was measured on a Tecan Safire^2 plate reader. The binding buffer was PBS with 1 mM MgCl2, 50% FBS for α4β1/VCAM-1 assays and PBS with 2 mM MgCl2, 5 mM EGTA, 50% FBS for αLβ2/ICAM-1 assays. EC50 is defined as the concentration of compound required to achieve 50% of the maximal response.

LFA-1 = target: T2, LFA-1 (Homo sapiens, UniProt P05107+P20701); assay: Static cell adhesion assay, HSB cells on ICAM-1 (αLβ2/ICAM-1; LFA-1); format: cell-based; details: Dose 3 μM, compound and THI0349 at the same concentration; ratio >1 = more potent agonist
T2 construct: The Jurkat (VCAM-1 assays) and HSB (ICAM-1 assays) cell lines were obtained from American Type Culture Collection; endogenous in cells; host or cells: HSB cells (ATCC)
Method: as §1, §2
THI0019 and THI0349 (average 11 μM) reported values here were obtained under the assay conditions reported herein and ran higher in the presence of serum than those values under different assay conditions. […] Relative to THI0019 (average 33 μM) as a control against CS1, the ratio of (compound activity/control) is as follows: Group I< or =1. Group II at least a ratio of >1 up to 2× that of THI0019 ran on the same plate; Group III is >2× of THI0019 but less than 5×; and Group IV>5× of THI0019 (with an upper limit of approximately 200 mM). In relation to LAD (Leukocyte Adhesion Deficiency), LFA-1 ratios are determined by dividing the relative fluorescence units (RFU) of each compound over that of the reference standard of THI0349, (RFU Compound/RFU of THI0349). Against LFA-1, the signal for THI0349 at 3 μM was compared to the claimed compounds at the same concentration.

T1 sequence (P13612 34-1032): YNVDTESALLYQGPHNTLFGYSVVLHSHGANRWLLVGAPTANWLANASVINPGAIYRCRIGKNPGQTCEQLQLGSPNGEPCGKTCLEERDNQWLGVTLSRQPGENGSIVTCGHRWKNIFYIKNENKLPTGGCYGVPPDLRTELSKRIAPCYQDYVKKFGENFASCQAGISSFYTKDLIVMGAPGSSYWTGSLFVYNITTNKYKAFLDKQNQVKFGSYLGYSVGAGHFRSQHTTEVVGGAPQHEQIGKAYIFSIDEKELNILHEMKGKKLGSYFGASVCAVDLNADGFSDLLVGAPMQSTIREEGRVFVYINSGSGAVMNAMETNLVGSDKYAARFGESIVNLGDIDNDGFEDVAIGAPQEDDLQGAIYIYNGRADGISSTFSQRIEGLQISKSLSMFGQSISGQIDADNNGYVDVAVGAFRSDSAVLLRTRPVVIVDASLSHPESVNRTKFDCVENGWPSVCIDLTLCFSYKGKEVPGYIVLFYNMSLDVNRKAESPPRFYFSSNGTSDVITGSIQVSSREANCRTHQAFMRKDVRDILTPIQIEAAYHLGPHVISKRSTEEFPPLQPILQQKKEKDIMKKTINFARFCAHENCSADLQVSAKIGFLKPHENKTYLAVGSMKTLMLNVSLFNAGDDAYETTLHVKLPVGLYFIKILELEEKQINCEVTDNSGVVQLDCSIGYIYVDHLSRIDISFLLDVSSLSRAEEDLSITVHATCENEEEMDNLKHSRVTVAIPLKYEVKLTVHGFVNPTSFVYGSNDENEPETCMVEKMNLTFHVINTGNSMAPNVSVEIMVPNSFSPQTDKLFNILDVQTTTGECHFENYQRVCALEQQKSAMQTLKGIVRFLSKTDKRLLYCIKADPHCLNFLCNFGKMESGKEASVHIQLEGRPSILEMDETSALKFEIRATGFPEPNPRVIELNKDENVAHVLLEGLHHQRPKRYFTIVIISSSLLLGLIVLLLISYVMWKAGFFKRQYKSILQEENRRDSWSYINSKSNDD
T1 sequence (P05556 21-798): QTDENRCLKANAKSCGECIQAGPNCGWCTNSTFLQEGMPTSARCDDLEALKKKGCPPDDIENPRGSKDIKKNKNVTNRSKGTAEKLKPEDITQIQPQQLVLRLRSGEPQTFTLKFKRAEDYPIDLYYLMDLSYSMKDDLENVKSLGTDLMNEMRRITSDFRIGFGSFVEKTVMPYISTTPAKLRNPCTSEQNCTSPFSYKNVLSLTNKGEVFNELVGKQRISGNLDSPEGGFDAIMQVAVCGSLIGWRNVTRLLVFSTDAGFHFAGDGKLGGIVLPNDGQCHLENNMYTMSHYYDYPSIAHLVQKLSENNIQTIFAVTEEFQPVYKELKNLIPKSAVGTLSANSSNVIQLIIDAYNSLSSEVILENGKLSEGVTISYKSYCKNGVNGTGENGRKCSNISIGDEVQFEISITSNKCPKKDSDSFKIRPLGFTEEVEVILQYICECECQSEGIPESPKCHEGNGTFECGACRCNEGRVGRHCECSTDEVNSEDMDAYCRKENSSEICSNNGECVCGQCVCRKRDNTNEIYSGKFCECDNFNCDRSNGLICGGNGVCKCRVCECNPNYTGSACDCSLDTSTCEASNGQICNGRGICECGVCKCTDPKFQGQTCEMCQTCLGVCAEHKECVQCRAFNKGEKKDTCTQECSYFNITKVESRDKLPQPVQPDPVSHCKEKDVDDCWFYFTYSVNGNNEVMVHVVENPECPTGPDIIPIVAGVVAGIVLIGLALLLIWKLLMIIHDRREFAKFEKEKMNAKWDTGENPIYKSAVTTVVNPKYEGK
T2 sequence (P20701 26-1170): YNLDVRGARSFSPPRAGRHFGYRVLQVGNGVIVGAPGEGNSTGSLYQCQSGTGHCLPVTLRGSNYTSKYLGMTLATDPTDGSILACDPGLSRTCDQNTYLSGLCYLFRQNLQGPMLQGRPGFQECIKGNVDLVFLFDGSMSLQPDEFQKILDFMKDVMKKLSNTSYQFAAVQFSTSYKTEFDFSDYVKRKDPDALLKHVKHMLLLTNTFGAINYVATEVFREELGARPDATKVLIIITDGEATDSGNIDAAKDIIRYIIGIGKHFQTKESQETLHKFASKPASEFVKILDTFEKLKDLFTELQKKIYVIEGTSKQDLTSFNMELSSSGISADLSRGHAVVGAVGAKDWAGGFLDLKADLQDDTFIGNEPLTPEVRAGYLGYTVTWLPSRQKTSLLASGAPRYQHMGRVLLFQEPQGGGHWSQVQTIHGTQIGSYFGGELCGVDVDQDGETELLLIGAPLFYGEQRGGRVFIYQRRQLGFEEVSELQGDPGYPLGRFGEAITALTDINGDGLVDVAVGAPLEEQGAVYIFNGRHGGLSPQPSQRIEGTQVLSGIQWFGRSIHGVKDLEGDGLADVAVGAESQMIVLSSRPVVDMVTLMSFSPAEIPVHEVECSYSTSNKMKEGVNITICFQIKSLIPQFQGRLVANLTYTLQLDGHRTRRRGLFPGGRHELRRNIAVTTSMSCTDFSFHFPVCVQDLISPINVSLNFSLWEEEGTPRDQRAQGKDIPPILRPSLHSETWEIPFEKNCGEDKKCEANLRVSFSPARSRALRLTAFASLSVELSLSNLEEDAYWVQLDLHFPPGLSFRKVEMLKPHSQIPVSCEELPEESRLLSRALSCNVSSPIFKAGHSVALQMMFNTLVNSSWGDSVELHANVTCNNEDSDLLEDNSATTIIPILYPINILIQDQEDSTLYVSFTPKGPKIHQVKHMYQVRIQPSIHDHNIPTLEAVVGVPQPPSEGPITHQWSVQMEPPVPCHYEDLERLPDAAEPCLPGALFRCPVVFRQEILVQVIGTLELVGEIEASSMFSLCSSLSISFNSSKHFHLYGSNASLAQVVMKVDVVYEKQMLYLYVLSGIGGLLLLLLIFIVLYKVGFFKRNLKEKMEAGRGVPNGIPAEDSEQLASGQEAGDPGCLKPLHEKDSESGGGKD
T2 sequence (P05107 23-769): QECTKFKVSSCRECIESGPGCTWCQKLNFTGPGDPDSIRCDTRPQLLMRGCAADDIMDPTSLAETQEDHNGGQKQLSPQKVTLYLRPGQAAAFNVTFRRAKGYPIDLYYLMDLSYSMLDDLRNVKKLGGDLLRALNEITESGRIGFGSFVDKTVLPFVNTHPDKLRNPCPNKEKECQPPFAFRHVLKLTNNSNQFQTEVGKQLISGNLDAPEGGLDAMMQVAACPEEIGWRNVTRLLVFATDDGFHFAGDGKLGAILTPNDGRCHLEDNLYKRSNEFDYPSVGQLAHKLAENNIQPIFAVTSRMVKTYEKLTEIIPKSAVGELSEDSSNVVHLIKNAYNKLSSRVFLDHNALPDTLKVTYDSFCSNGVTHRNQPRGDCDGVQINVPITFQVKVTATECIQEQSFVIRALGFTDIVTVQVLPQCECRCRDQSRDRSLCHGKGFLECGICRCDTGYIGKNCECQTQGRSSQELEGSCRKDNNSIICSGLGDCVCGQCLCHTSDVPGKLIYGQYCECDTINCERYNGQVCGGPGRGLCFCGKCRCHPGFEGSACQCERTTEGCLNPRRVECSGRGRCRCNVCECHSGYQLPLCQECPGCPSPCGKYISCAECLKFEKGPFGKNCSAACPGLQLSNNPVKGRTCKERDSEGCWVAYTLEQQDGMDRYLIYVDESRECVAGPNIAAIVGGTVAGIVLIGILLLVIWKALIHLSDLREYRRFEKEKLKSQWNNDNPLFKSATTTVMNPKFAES

SMILES	Average Ratio Compound to THI0019 (Activity against CS1) (α4β1/VCAM-1)	LAD Raw Fluorescence Units against LFA-1; Ratio of raw counts Compound/THI0349 (LFA-1)
COc1ccc(CN(Cc2ccc(OC)cc2)C(=O)CN2CCN(CC(=O)N(Cc3ccc(OC)cc3)Cc3ccc(OC)cc3)C(=O)C2)cc1 [2,2′-(2-oxopiperazine-1,4-diyl)bis(N,N-bis(4-methoxybenzyl)acetamide)]	Group I (Group I< or =1)	5.9 fold increased response
COc1ccc(CN(Cc2ccc(OC)cc2)C(=O)CN2CCN(C(=O)OCc3ccccc3)CC2)cc1 [benzyl 4-(2-(bis(4-methoxybenzyl)amino)-2-oxoethyl)piperazine-1-carboxylate]	Group II (Group II at least a ratio of >1 up to 2× that of THI0019 ran on the same plate)	3.3 fold increased response
COc1ccc(CN(Cc2ccc(N(C)C)cc2)C(=O)CN2CCN(C(=O)c3cccc(OC)c3)CC2=O)cc1 [N-(4-(dimethylamino)benzyl)-2-(4-(3-methoxybenzoyl)-2-oxopiperazin-1-yl)-N-(4-methoxybenzyl)acetamide]	Group IV (Group IV>5× of THI0019 (with an upper limit of approximately 200 mM))	1.2 fold increased response
O=C(CN1CCN(C(=O)OCc2ccccc2)CC1)N(Cc1ccc(O)cc1)Cc1ccc(O)cc1 [benzyl 4-(2-(bis(4-hydroxybenzyl)amino)-2-oxoethyl)piperazine-1-carboxylate]	Group I (Group I< or =1)	0.3 fold response
COc1ccc(CN(CC(C)C)C(=O)CN2CCN(CC(=O)N(Cc3ccc(OC)cc3)CC(C)C)CC2)cc1 [2,2′-(piperazine-1,4-diyl)bis(N-isobutyl-N-(4-methoxybenzyl)acetamide)]	Group IV (Group IV>5× of THI0019 (with an upper limit of approximately 200 mM))	0.9 fold response
COc1ccc(CN(Cc2ccc(N(C)C)cc2)C(=O)CN2CCN(C(=O)OCc3ccccc3)CC2)cc1 [benzyl 4-(2-((4-(dimethylamino)benzyl)(4-methoxybenzyl)amino)-2-oxoethyl)piperazine-1-carboxylate]	Group III (Group III is >2× of THI0019 but less than 5×)	1.2 fold increased response
O=C(CN1CCN(CC(=O)N(Cc2cccs2)Cc2cccs2)CC1)N(Cc1cccs1)Cc1cccs1 [2,2′-(piperazine-1,4-diyl)bis(N,N-bis(thiophen-2-ylmethyl)acetamide)]	Group II (Group II at least a ratio of >1 up to 2× that of THI0019 ran on the same plate)	0.4 fold response
COc1cccc(CN(Cc2cccc(OC)c2)C(=O)OCCN2CCN(CCOC(=O)N(Cc3cccc(OC)c3)Cc3cccc(OC)c3)CC2)c1 [piperazine-1,4-diylbis(ethane-2,1-diyl) bis(bis(3-methoxybenzyl)carbamate)]	Group I (Group I< or =1)	4.7 fold increased response
COc1ccc(CN(Cc2ccc(N(C)C)cc2)C(=O)OCCN2CC(=O)N(CCOC(=O)N(Cc3ccc(OC)cc3)Cc3ccc(N(C)C)cc3)CC2=O)cc1 [(2,5-dioxopiperazine-1,4-diyl)bis(ethane-2,1-diyl) bis(4-(dimethylamino)benzyl (4-methoxybenzyl)carbamate)]	Group I (Group I< or =1)	9.9 fold increased response
COc1cccc(CN(Cc2cccc(OC)c2)C(=O)CN2CCN(C(=O)OCc3ccccc3)CC2)c1 [benzyl 4-(2-(bis(3-methoxybenzyl)amino)-2-oxoethyl)piperazine-1-carboxylate]	Group I (Group I< or =1)	1.42 fold increased response
O=C(CCCCN1CCN(C(=O)OCc2ccccc2)CC1)N(Cc1cccs1)Cc1cccs1 [benzyl 4-(5-(bis(thiophen-2-ylmethyl)amino)-5-oxopentyl)piperazine-1-carboxylate]	Group I (Group I< or =1)	0.9 fold response
CN(C)c1ccc(CN(Cc2ccc(N(C)C)cc2)C(=O)CN2CC(=O)N(CC(=O)N(Cc3ccc(N(C)C)cc3)Cc3ccc(N(C)C)cc3)CC2=O)cc1 [2,2′-(2,5-dioxopiperazine-1,4-diyl)bis(N,N-bis(4-(dimethylamino)benzyl)acetamide)]	Group I (Group I< or =1)	–
COc1ccc(CN(Cc2ccc(OC)cc2)C(=O)OCCN2CC(=O)N(CCOC(=O)N(Cc3ccc(OC)cc3)Cc3ccc(OC)cc3)CC2=O)cc1 [(2,5-dioxopiperazine-1,4-diyl)bis(ethane-2,1-diyl) bis(bis(4-methoxybenzyl)carbamate)]	Group I (Group I< or =1)	7.8 fold increased response
COc1ccc(CN(Cc2ccc(N(C)C)cc2)C(=O)CN2CCN(C(=O)OCc3cccc(OC)c3)CC2=O)cc1 [3-methoxybenzyl 4-(2-((4-(dimethylamino)benzyl)(4-methoxybenzyl)amino)-2-oxoethyl)-3-oxopiperazine-1-carboxylate]	Group II (Group II at least a ratio of >1 up to 2× that of THI0019 ran on the same plate)	4.2 fold increased response
COc1ccc(CN(Cc2cccc(N(C)C)c2)C(=O)CN2CC(=O)N(CC(=O)N(Cc3ccc(OC)cc3)Cc3cccc(N(C)C)c3)CC2=O)cc1	Group II (Group II at least a ratio of >1 up to 2× that of THI0019 ran on the same plate)	–
O=C1CN(CC(=O)N(Cc2cccs2)Cc2cccs2)C(=O)CN1CC(=O)N(Cc1cccs1)Cc1cccs1 [2,2′-(2,5-dioxopiperazine-1,4-diyl)bis(N,N-bis(thiophen-2-ylmethyl)acetamide)]	Group III (Group III is >2× of THI0019 but less than 5×)	–
COc1cccc(CN(Cc2cccc(OC)c2)C(=O)CN2CC(=O)N(CC(=O)N(Cc3cccc(OC)c3)Cc3cccc(OC)c3)CC2=O)c1 [2,2′-(2,5-dioxopiperazine-1,4-diyl)bis(N,N-bis(3-methoxybenzyl)acetamide)]	Group I (Group I< or =1)	–
COc1ccc(CN(Cc2ccc(OC)cc2)C(=O)CN2CCN(CC(=O)N(Cc3ccc(OC)cc3)Cc3ccc(OC)cc3)CC2)cc1 [2,2′-(piperazine-1,4-diyl)bis(N,N-bis(4-methoxybenzyl)acetamide)]	Group I (Group I< or =1)	–
